Patent US20060014726A1, “Derivatives of cyclic1, 3- propanediol phosphate and their action in differentiation therapy” (priority 2002, published 2006)
Read-outs that look alike come from different tables or passages of the source.

What was measured:
[1] = tested on: T47D human breast cancer cells (clone 11); assay: Proliferation assay ([3H]thymidine uptake); assay type: cell-based; conditions: T47D clone 11, 50 μM
Experimental: In order to validate such an observation, T47D cells were incubated with varying concentration of 1,3-cPP in the range of 1-50 μM in a standard 5 day [3H]thymidine uptake assay.
T47D cells (clone 11;ER^+PR^+) were plated in 96 well plates in sets of 6, each containing 8×10^4 cells in a final volume of 200 μl per well. 1,3-cPP was added to the cultures to form a final concentration of 1-50 μM. Plates were incubated at 37° C. over the course of 5 days, where on each day, one plate was pulsed with [^3H]thymidine (5.7 Ci/mmol, Sigma, St. Louis, Mo.) overnight for the last 16 hours of the assay, and then frozen. The plates were harvested (Packard micromate 196 harvester, Merriden, Conn.) and radioactivity was scored on a 96 well plate reader (Packard 96, merriden, Conn.).

K562 cells = tested on: K562 cells
Experimental: It is known from the literature that sodium butyrate derives K562 cells into the erythroid differentiation program (Sutherland et al. 1986). Base on such an observation, the ability of 1,3-cPP alone or in combination with sodium butyrate may trigger the erythroid differentiation program manifested by hemoglobin production.
K562 cells were incubated for 5 days in the presence or absence of 10 or 50 μM 1,3cPP and 1 mM butyric acid as a differentiating agent. Quantitative measurements of hemoglobin production was determined by staining of lysed cells with benzidine-peroxide reagent. The benzidine-peroxide reagent was prepared by dissolving 3,3′,5,5′-tetramethyl benzidine in 90% acetic acid and mixing with an equal volume of freshly prepared 1% hydrogen peroxide. Cell lysate, obtained by hypotonic lysing of 5×10^4 cells in 0.1 ml distilled water, was added to 0.1 ml benzidine reagent and incubated at room temperature for 10 minutes in the dark. Absorbance was measured at 515 nm and was taken as a relative index of the hemoglobin level.

PR mRNA in MCF-7 cells = assay: Quantitative RT-PCR of PR mRNA in MCF-7 cells; assay type: cell-based, human; conditions: 20 μM
Experimental: It should however be understood that the augmented expression of ER-α and PR presented in FIGS. 1-3 could have in principle originated from increase in either transcription or translation associated with the respective steroid receptor genes. Therefore the effects of long term incubation with 1,3cPP on the respective ER-α and PR mRNA levels were examined. Quantitative RT-PCR was carried out with a Light Cycler as described. […] In contrast, only 20 μM 1,3-cPP were required to induce 7-fold increase in the ER-α mRNA in T47D clone 8 cells (FIG. 4D). […]
RT-PCR was carried out on a programmable thermal controller instrument according to standard protocols, where the annealing temperatures were 58° C. for ER-α and 56° C. for PR. […] The PCR products were diluted and used to build a standard curve for the quantitative PCR which was carried out in a Light Cycler instrument (Roche Diagnostics, Mannheim, Germany). […] For each control and test sample, the amount of the constitutively expressed house keeping enzyme glyceraldehyde-3-phosphate dehydrogenase (GAPDH) mRNA was quantified by using appropriate primers and the quantity of ER-α and PR mRNA were normalized to the quantity of GAPDH mRNA in each sample. The relative amounts of ER-α and PR mRNA were expressed as normalized 1,3cPP treatment values divided by the normalized control values.

Acute toxicity testing = assay type: in vivo; conditions: CD-1 mice
Experimental: The acute toxicity of 1,3cPP was determined in CD-1 male and female mice, 8-12 weeks of age, via i.v., i.p. and p.o. routes of administration.

## O=P1(O)OCCCO1 [1,3-cPP, 1,3-cyclic propanediol phosphate]
[1]; after the third day of 5 day assay
  proliferation ([3H]thymidine uptake), persistence of effect: effect was lost after the third day
[1]; first 3 days of incubation, P values 0.0370, 0.0192 and 0.0238 on days 1-3
  proliferation ([3H]thymidine uptake) compared to control cultures: significantly inhibited proliferation
K562 cells; K562 cells, 10 μM 1,3-cPP together with 1 mM sodium butyrate, 5 days
  baseline production of hemoglobin: more than doubling
K562 cells; K562 cells, 50 μM 1,3-cPP together with 1 mM sodium butyrate, 5 days
  baseline production of hemoglobin: more than tripling
K562 cells; K562 cells, 1,3-cPP alone, 5 days
  hemoglobin production: almost no effect
K562 cells; K562 cells, all groups
  cell viability: over 85%
K562 cells; K562 cells, combination with sodium butyrate (FIG. 7)
  interaction with sodium butyrate on hemoglobin production and proliferation: synergizes with sodium butyrate
K562 cells; K562 cells, fifth day, most prominently 50 μM 1,3-cPP together with 1 mM sodium butyrate
  total cell number: concurrent decrease
PR mRNA in MCF-7 cells; 8th day
  increase in the normalized PR mRNA expression: 3 fold
PR mRNA in MCF-7 cells; 11th day
  increase in the normalized PR mRNA expression: about 1.5 fold
Acute toxicity testing; i.p., doses of 0.25-5.0 g/kg
  acute 24 hr toxicity, pharmacotoxic effects: no pharmacotoxic effects were observed
Acute toxicity testing; i.v., i.p. and p.o.
  toxicity classification following conventional criteria: practically non-toxic substance
Acute toxicity testing; i.v., up to 1 g/kg
  acute toxicity, changes in body weight and behavior: no changes in body weight nor in behavior
Acute toxicity testing; p.o., up to 10 g/kg
  acute toxicity, changes in body weight and behavior: no changes in body weight nor in behavior
